Measured values reported in patent US8952177B2 (Janssen Pharmaceutica NV, priority 2013, dated 2015).
Structures can show the parent of a compound that is named as a salt.

Tests used:
[1] = system: leukotriene pathway in human whole blood (LTB4); test: Human whole blood assay (LTB4 after calcium ionophore A23187 stimulation); type: cell-based; settings: Homo sapiens, human whole blood diluted 1:1 in RPMI, 15 min pre-incubation, A23187 7 μg/mL for 30 min at 37° Celsius
Procedure, shortened: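 Heparinised human whole blood, diluted 1:1 in RPMI, was preincubated with compound for 15 min at 37° C. before stimulation with A23187 (7 μg/mL) for 30 min. Plasma LTB4 was measured by immunoassay kit and IC50 obtained by 4-parameter fit; single replicate per plate, blood from at least one donor.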

[2] = biological target: human FLAP (Homo sapiens (Human), UniProt P20292); test: FLAP binding assay (HTRF format); settings: human FLAP-containing Sf-9 membranes, 25 nM HTRF ligand, 2 h; average of runs; read-out: FLAP Binding wild type HTRF Ki
Description: The ability of the compounds of the present invention to treat a FLAP-mediated disease and/or disorder, or associated symptoms or complications thereof, was determined using the following procedures. Binding assay data represent the average value obtained from two different assay plates, with samples run in duplicate on each plate. Human whole blood assay data represent a single replicate on an assay plate using whole blood from at least one healthy donor.
The assay below is used to test the modulatory activity of compounds against FLAP. Human and mouse FLAP-encoding DNA was amplified by polymerase chain reaction and cloned into pFastBacl (Invitrogen) with a NH2-terminal 6-His tag for expression in Spodoptera frugiperda (Sf-9) cells. FLAP-containing membranes were prepared as was a FITC-labeled FLAP modulator (3-(3-(tert-butylthio)-1-(4-chlorobenzyl)-5-(quinolin-2-ylmethoxy)-1H-indol-2-yl)-2,2-dimethylpropanoic acid). The FLAP binding assay is performed in HTRF format (homogeneous time resolved fluorescence). […] The reaction is allowed to proceed for two hours after which the plate is read on an Envision plate reader in HTRF mode. Data are expressed as a HTRF ratio.
For human FLAP binding assays, data are analyzed with 3DX Explorer software. […] For analysis, data from multiple runs are averaged and each compound may be tested in 2 to 20 runs. Each run comprises two plates and each plate includes duplicates. Data from each plate is averaged and data are imported into 3DX. The data from multiple runs are aggregated as the average of duplicates of the calculated ratios in order to calculate Ki and IC50 values. Numbers in parentheses are the number of runs for the assay.

Chain of human FLAP (P20292 whole entry): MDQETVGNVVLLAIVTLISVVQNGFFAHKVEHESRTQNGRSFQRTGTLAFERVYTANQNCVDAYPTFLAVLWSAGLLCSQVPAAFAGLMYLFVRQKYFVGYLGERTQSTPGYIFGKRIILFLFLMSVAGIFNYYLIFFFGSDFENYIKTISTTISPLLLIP

SMILES	IC50 [1]	Ki [2]
Cc1ccc(COc2cc(F)c3nc(CC4(C(=O)O)CCCC4)n(Cc4ccc(Br)cc4)c3c2)nc1 [Example 61, 1-({1-(4-Bromobenzyl)-4-fluoro-6-[(5-methylpyridin-2-yl)methoxy]-1H-benzimidazol-2-yl}methyl)cyclopentanecarboxylic acid]	2280 nM	6 nM
Cn1ccc(COc2cc(F)c3nc([C@@H]4CCCC[C@@H]4C(=O)O)n(Cc4ccc(Br)cc4F)c3c2)n1 (racemic) [Example 94, racemic cis-2-{1-(4-Bromo-2-fluorobenzyl)-4-fluoro-6-[(1-methyl-1H-pyrazol-3-yl)methoxy]-1H-benzimidazol-2-yl}cyclohexanecarboxylic acid]	340 nM	2.4 nM
Cn1ccc(COc2ccc3nc([C@@H]4[C@H](C(=O)O)C4(C)C)n(Cc4ccc(OC(F)(F)F)cc4)c3c2)n1 (racemic) [Example 122, racemic cis-2,2-Dimethyl-3-{6-[(1-methyl-1H-pyrazol-3-yl)methoxy]-1-[4-(trifluoromethoxy)benzyl]-1H-benzimidazol-2-yl}cyclopropanecarboxylic acid]	3400 nM	~830 nM
Cn1ccc(COc2ccc3nc([C@H]4CCCC[C@H]4C(=O)O)n(Cc4ccc(OC(F)(F)F)cc4F)c3c2)n1 (stereo in doubt) [Example 53, (1R*,2S*)-2-(1-(2-Fluoro-4-(trifluoromethoxy)benzyl)-6-((1-methyl-1H-pyrazol-3-yl)methoxy)-1H-benzo[d]imidazol-2-yl)cyclohexanecarboxylic acid]	270 nM	3 nM
Cc1ccc(COc2ccc3nc(C4CCCC[C@H]4C(=O)O)n(Cc4ccc(C#N)cc4)c3c2)nc1 (mixture of isomers) [Example 37, racemic cis-2-{1-(4-Cyanobenzyl)-6-[(5-methylpyridin-2-yl)methoxy]-1H-benzimidazol-2-yl}cyclohexanecarboxylic acid as the TFA salt]	680 nM	26 nM
Cc1cnc(COc2ccc3nc(CC(C)(C)C(=O)O)n(Cc4ccc(-c5ccc(C(F)(F)F)cc5)cc4F)c3c2)c(F)c1 [Example 141, 3-(6-[(3-Fluoro-5-methylpyridin-2-yl)methoxy]-1-{[3-fluoro-4′-(trifluoromethyl)biphenyl-4-yl]methyl}-1H-benzimidazol-2-yl)-2,2-dimethylpropanoic acid]	760 nM	5.1 nM
CCC(CC)(Cc1nc2ccc(OCc3ccn(C)n3)cc2n1Cc1ccc(OC(F)(F)F)cc1F)C(=O)O [Example 56, 2-Ethyl-2-({1-[2-fluoro-4-(trifluoromethoxy)benzyl]-6-[(1-methyl-1H-pyrazol-3-yl)methoxy]-1H-benzimidazol-2-yl}methyl)butanoic acid]	~2000 nM	46 nM
CCC(CC)(Cc1nc2ccc(OCc3ccc(C)cn3)cc2n1Cc1ccc(OC(F)(F)F)cc1F)C(=O)O [Example 23, 2-Ethyl-2-({1-[2-fluoro-4-(trifluoromethoxy)benzyl]-6-[(5-methylpyridin-2-yl)methoxy]-1H-benzimidazol-2-yl}methyl)butanoic acid]	910 nM	18 nM

The remaining lines, values ahead:

IC50 [1]	Ki [2]	SMILES
170 nM	7.9 nM	Cn1cc(Cl)c(COc2ccc3nc([C@@H]4CCCC[C@@H]4C(=O)O)n(Cc4ccc(N5CCCCC5)cc4)c3c2)n1 (racemic) [Example 82, racemic cis-2-{6-[(4-Chloro-1-methyl-1H-pyrazol-3-yl)methoxy]-1-(4-piperidin-1-ylbenzyl)-1H-benzimidazol-2-yl}cyclohexanecarboxylic acid]
840 nM	15 nM	Cc1cnc(COc2ccc3nc(CC(C)(C)C(=O)O)n(Cc4c(F)cc(Br)cc4F)c3c2)c(F)c1 [Example 130, 3-{1-(4-Bromo-2,6-difluorobenzyl)-6-[(3-fluoro-5-methylpyridin-2-yl)methoxy]-1H-benzimidazol-2-yl}-2,2-dimethylpropanoic acid]
690 nM	30 nM	Cn1ccc(COc2ccc3nc([C@@H]4CCCC[C@@H]4C(=O)O)n(Cc4ccc(OC(F)(F)F)cc4Br)c3c2)n1 (racemic) [Example 104, racemic cis-2-{1-[2-Bromo-4-(trifluoromethoxy)benzyl]-6-[(1-methyl-1H-pyrazol-3-yl)methoxy]-1H-benzimidazol-2-yl}cyclohexanecarboxylic acid as the HCl salt]
~20000 nM	85 nM	Cc1ccc(COc2cc(Cl)c3nc(CC(C)(C)C(=O)O)n(Cc4ccc(Br)cc4)c3c2)nc1 [Example 79, 3-{1-(4-Bromobenzyl)-4-chloro-6-[(5-methylpyridin-2-yl)methoxy]-1H-benzimidazol-2-yl}-2,2-dimethylpropanoic acid]
48 nM	5.2 nM	CCC(CC)(Cc1nc2ccc(OCc3ncc(C)cc3F)cc2n1Cc1ccc(N2CCC(C)CC2)cc1F)C(=O)O [Example 181, 2-Ethyl-2-({1-[2-fluoro-4-(4-methylpiperidin-1-yl)benzyl]-6-[(3-fluoro-5-methylpyridin-2-yl)methoxy]-1H-benzimidazol-2-yl}methyl)butanoic acid]
910 nM	13 nM	Cn1cc(Cl)c(COc2ccc3nc([C@@H]4CCCC[C@@H]4C(=O)O)n(Cc4ccc(-c5ccc(C(F)(F)F)cc5)cc4)c3c2)n1 (racemic) [Example 151, racemic cis-2-(6-[(4-Chloro-1-methyl-1H-pyrazol-3-yl)methoxy]-1-{[4′-(trifluoromethyl)biphenyl-4-yl]methyl}-1H-benzimidazol-2-yl)cyclohexanecarboxylic acid]
140 nM	0.47 nM	Cc1cnc(COc2ccc3nc([C@H]4CCCC[C@H]4C(=O)O)n(Cc4ccc(-c5ccc(C(F)(F)F)cc5)cc4)c3c2)c(F)c1 (single isomer, unassigned) [Example 139, (1R*,2S*)-2-(6-[(3-Fluoro-5-methylpyridin-2-yl)methoxy]-1-{[4′-(trifluoromethyl)biphenyl-4-yl]methyl}-1H-benzimidazol-2-yl)cyclohexanecarboxylic acid]
920 nM	7.2 nM	Cc1ccc(COc2ccc3nc([C@H]4CCCC[C@H]4C(=O)O)n(Cc4cccc(-c5ccc(C(F)(F)F)cc5)c4)c3c2)nc1 (racemic) [Example 145, racemic cis-2-(6-[(5-Methylpyridin-2-yl)methoxy]-1-{[4′-(trifluoromethyl)biphenyl-3-yl]methyl}-1H-benzimidazol-2-yl)cyclohexanecarboxylic acid]
1820 nM	13 nM	Cc1cnc(COc2ccc3nc(CC(C)(C)C(=O)O)n(Cc4cccc(-c5ccc(C(F)(F)F)cc5)c4)c3c2)c(F)c1 [Example 143, 3-(6-[(3-Fluoro-5-methylpyridin-2-yl)methoxy]-1-{[4′-(trifluoromethyl)biphenyl-3-yl]methyl}-1H-benzimidazol-2-yl)-2,2-dimethylpropanoic acid]
360 nM	7.3 nM	CCC(CC)(Cc1nc2ccc(OCc3ccn(C)n3)cc2n1Cc1ccc(-c2ccc(C(F)(F)F)cc2)cc1F)C(=O)O [Example 187]
97 nM	2.5 nM	Cc1ccc(COc2ccc3nc([C@H]4CCCC[C@H]4C(=O)O)n(Cc4c(F)cc(-c5ccc(C(F)(F)F)cc5)cc4F)c3c2)nc1 (racemic) [Example 138, racemic cis-2-(1-{[3,5-Difluoro-4′-(trifluoromethyl)biphenyl-4-yl]methyl}-6-[(5-methylpyridin-2-yl)methoxy]-1H-benzimidazol-2-yl)cyclohexanecarboxylic acid]
